The target in the assay is T1, VraRC (C-terminal DNA-binding domain of response regulator VraR) (Staphylococcus aureus, UniProt Q7A4R9).
T1 construct: residues 138-209), C-terminal His-tag
The assay is described as follows: LSPR (VraRC immobilized on NTA chip, […] fit); supported by 1H-15N HSQC NMR titration and FP inhibition of DNA binding (IC50 […]).

T1 sequence (Q7A4R9 138-209): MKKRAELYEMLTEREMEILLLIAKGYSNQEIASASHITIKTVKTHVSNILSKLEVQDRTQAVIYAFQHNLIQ

In general, Kd refers to a measure of binding affinity in units of concentration. Lower therefore signals a tighter complex. TST1N-224 returned a Kd of 23.4 ± 1.2 µM.
